# Measured values: patent US8329904B2, “Azacyclic derivatives” (Hoffmann-La Roche Inc., priority 2009, dated 2012)
# Target: T1, human HSL (Homo sapiens, UniProt Q05469)
# T1 construct: overlapping PCR to generate a full length human HSL ORF with a 3′-His6 tag; His6 (C); made in house; host or cells: High 5 insect cells (baculovirus, pFast-BAC)
# T1 sequence (Q05469 1-1076): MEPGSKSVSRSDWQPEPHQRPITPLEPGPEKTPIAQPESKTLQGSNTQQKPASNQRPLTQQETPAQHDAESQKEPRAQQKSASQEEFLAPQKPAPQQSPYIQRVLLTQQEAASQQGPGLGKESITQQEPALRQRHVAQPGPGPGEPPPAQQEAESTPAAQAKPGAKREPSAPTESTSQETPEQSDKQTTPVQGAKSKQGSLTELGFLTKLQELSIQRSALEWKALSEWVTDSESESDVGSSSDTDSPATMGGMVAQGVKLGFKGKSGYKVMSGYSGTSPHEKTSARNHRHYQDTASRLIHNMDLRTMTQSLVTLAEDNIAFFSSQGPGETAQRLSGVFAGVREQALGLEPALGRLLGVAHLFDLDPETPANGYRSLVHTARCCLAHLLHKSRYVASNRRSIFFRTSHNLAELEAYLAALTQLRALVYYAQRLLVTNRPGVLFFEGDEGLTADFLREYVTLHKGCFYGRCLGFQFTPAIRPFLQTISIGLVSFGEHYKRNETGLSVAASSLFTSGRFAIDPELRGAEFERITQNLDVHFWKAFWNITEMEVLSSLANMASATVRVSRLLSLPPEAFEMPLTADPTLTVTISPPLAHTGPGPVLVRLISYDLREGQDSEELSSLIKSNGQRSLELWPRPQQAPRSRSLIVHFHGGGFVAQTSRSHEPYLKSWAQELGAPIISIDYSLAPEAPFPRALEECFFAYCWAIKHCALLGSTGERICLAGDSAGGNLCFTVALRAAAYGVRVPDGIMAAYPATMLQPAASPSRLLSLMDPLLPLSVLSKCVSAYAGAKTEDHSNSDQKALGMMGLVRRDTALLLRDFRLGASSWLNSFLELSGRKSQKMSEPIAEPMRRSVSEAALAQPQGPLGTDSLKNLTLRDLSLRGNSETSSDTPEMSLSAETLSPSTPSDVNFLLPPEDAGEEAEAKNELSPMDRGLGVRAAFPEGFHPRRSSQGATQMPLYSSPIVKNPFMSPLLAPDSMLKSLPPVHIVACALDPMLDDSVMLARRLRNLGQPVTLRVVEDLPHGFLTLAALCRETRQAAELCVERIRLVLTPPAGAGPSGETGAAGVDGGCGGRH
# Experiment: Human Hormone-Sensitive Lipase (HSL) Enzyme Inhibition Assay
# Type: biochemical
# Settings: colorimetric assay, 2,3-dimercapto-1-propanol tributyrate (DMPT) substrate, 37° C. for 20 minutes, absorbance at 405 nm; read-out: HSL hum IC50
# Experimental: Production of Human Full Length Hormone Sensitive Lipase-His^6
# 1) Cloning: cDNA was prepared from commercial human brain polyA-+ RNA and used as a template in overlapping PCR to generate a full length human HSL ORF with a 3′-His6 tag. This full length insert was cloned into the pFast-BAC vector and the DNA-sequence of several single clones was verified. DNA from a correct full length clone with the 3′His6 tag was used to transform the E. coli strain DH10BAC. Resulting bacmid DNA was used to generate a titered baculovirus stock for protein generation.
# Cells were thawed. […] was done at 3×30 sec., Lubrol PX was added to 0.2% final concentration followed by stirring for 15 min. at 4° C. and centrifugation at 25 k×g, 60 min., 4° C. […] Supernatant was removed, the resin washed in the centrifuge vessel using 5 volumes of Base Buffer containing 0.2% Lubrol PX. Centrifugation was done again, then the supernatant discarded. The resin wass poured onto a 0.8 μm membrane in a disposable filter unit (Nalge 450-0080), and washed with 5 volumes of Base Buffer containing 0.2% Lubrol PX. It was then washed with 30 volumes of Base Buffer containing 60 mM imidazole pH 7.5 at 4° C. The protein was eluated with 5 volumes of 25 mM Tris-Cl, 300 mM NaCl, 200 mM imidazole, 10 mM 2-mercaptoethanol, pH 7.5 at 4° C. by tumbling resin with buffer end-over-end, 30 min., 4° C. The resin was captured on a 0.2 μm membrane disposable filter unit (Millipore SCGP U02 RE) and the eluate collected in the reservoir. The eluate was concentrated using a 30 k MWCO centrifugal filter device (Sartorius Vivascience Vivacell 100, VC1022), to 20 ml. It was then dialyzed overnight at 4° C., two times against 2 L of 10% glycerol, 25 mM Tris-Cl, 300 mM NaCl, 0.2 mM EDTA, 0.2 mM DTT, pH 7.5 at 4° C. The protein was filtered using a 0.22 μm disposable filter unit (Millipore SCGP00525). The protein concentration was calculated from absorbance at 280 nm, using 280=0.67 cm-1 mg-1. […] The protein was stored at −80° C.
# Human Hormone-Sensitive Lipase (HSL) Enzyme Inhibition Assay:
# HSL enzyme activity was measured by a colorimetric assay using 2,3-dimercapto-1-propanol tributyrate (Aldrich, St. Louis, Mo.) as a substrate. Typically, 1.5 mM 2,3-dimercapto-1-propanol tributyrate (DMPT) in 100 mM MOPS, pH 7.2, 0.2 mg/ml fatty acid-free BSA was prepared by sonication at 4° C. to homogenous suspension. Test compounds (2 mM stock in DMSO) were diluted 3 fold in series in DMSO. Compound solutions were diluted 24 fold in 1.5 mM DMPT containing solution and 18 ul per well was added to 384-well microplates (Corning Costar). Twelve microliters per well of human HSL (15 ug/ml) was added and the reaction mixture was incubated at 37° C. for 20 minutes. Six microliters of 12 mM dithio-bis-(2-nitrobenzoic acid) (DTNB) in DMSO plus 1.2% SDS and 0.6% Triton X-100 were added and the mixture was incubated at room temperature for 15 minutes. Product production was monitored by reading absorbance at 405 nm on an Envision Reader (PerkinElmer Life and Analytical Sciences, Shelton, Conn.).
row,Compound,IC50 [nM]
1,"Cn1cc2cc(N3CCC4(CCN(S(=O)(=O)c5ccccc5Cl)CC4)C3=O)ccc2n1 [Example 131, 8-(2-Chloro-benzenesulfonyl)-2-(2-methyl-2H-indazol-5-yl)-2,8-diaza-spiro[4.5]decan-1-one]",570
2,"O=C1N(c2ccc(OC(F)(F)F)cc2)CCC12CCN(S(=O)(=O)c1cccnc1OCc1ccccc1)CC2 [Example 195, 8-(2-Benzyloxy-pyridine-3-sulfonyl)-2-(4-trifluoromethoxy-phenyl)-2,8-diaza-spiro[4.5]decan-1-one]",50
3,"CC(Oc1ccc(N2CCC3(CCN(S(=O)(=O)c4ccccc4OC(F)(F)F)CC3)C2=O)cc1)C(F)(F)F (stereo not shown) [Example 99, 8-(2-Trifluoromethoxy-benzenesulfonyl)-2-[4-(2,2,2-trifluoro-1-methyl-ethoxy)-phenyl]-2,8-diaza-spiro[4.5]decan-1-one]",30
4,"O=C1N(CCc2ccc(Cl)cc2)CCC12CCN(S(=O)(=O)c1ccccc1Cl)CC2 [Example 47, 8-(2-Chloro-benzenesulfonyl)-2-[2-(4-chloro-phenyl)-ethyl]-2,8-diaza-spiro[4.5]decan-1-one]",40
5,"CN(C(=O)N1CCC2(CC1)CCN(c1ccc(OC(F)(F)F)cc1)C2=O)c1cccc(Cl)c1 [Example 302, 1-Oxo-2-(4-trifluoromethoxy-phenyl)-2,8-diaza-spiro[4.5]decane-8-carboxylic acid (3-chloro-phenyl)-methyl-amide]",40
6,"O=C1N(c2ccc(I)cc2)CCC12CCN(S(=O)(=O)c1ccccc1OC(F)(F)F)CC2 [Example 104, 2-(4-Iodo-phenyl)-8-(2-trifluoromethoxy-benzenesulfonyl)-2,8-diaza-spiro[4.5]decan-1-one]",40
7,"CS(=O)(=O)Oc1ccc(N2CCC3(CCN(S(=O)(=O)c4cccs4)CC3)C2=O)cc1 [Example 59, Methanesulfonic acid 4-[1-oxo-8-(thiophene-2-sulfonyl)-2,8-diaza-spiro[4.5]dec-2-yl]-phenyl ester]",30
8,"CC(C)c1ccc(N2CCC3(CCN(S(=O)(=O)c4ccccc4)CC3)C2=O)cn1 [Example 10, 8-Benzenesulfonyl-2-(6-isopropyl-pyridin-3-yl)-2,8-diaza-spiro[4.5]decan-1-one]",130
9,"O=C1N(CCCCc2ccccc2)CCC12CCN(S(=O)(=O)c1ccccc1Cl)CC2 [Example 246, 8-(2-Chloro-benzenesulfonyl)-2-(4-phenyl-butyl)-2,8-diaza-spiro[4.5]decan-1-one]",80
10,"CCCc1ccc(N2CCC3(CCN(S(=O)(=O)c4ccccc4OC(F)(F)F)CC3)C2=O)cc1 [Example 58, 2-(4-Propyl-phenyl)-8-(2-trifluoromethoxy-benzenesulfonyl)-2,8-diaza-spiro[4.5]decan-1-one]",40
11,"O=C1N(c2ccc(Oc3cccnc3)cc2)CCC12CCN(S(=O)(=O)c1ccccc1Cl)CC2 [Example 132, 8-(2-Chloro-benzenesulfonyl)-2-[4-(pyridin-3-yloxy)-phenyl]-2,8-diaza-spiro[4.5]decan-1-one]",280
12,"O=C1N(c2ccc(CCC3CC3)cc2)CCC12CCN(S(=O)(=O)c1ccccc1OC(F)(F)F)CC2 [Example 147, 2-[4-(2-Cyclopropyl-ethyl)-phenyl]-8-(2-trifluoromethoxy-benzenesulfonyl)-2,8-diaza-spiro[4.5]decan-1-one]",60
13,"CC(C)CS(=O)(=O)N1CCC2(CCN(c3ccc(OS(C)(=O)=O)cc3)C2=O)CC1 [Example 62, Methanesulfonic acid 4-[8-(2-methyl-propane-1-sulfonyl)-1-oxo-2,8-diaza-spiro[4.5]dec-2-yl]-phenyl ester]",250

# Second part, the molecule after the results:
row,IC50 [nM],Compound
1,150,"O=C(CCC1CC1)N1CCC2(CC1)CCN(c1ccc(OC(F)(F)F)cc1)C2=O [Example 13, 8-(3-Cyclopropyl-propionyl)-2-(4-trifluoromethoxy-phenyl)-2,8-diaza-spiro[4.5]decan-1-one]"
2,80,"CC(C)CS(=O)(=O)N1CCC2(CCN(c3ccc(OC(C)C(F)(F)F)cc3)C2=O)CC1 (stereo not shown) [Example 86, 8-(2-Methyl-propane-1-sulfonyl)-2-[4-(2,2,2-trifluoro-1-methyl-ethoxy)-phenyl]-2,8-diaza-spiro[4.5]decan-1-one]"
3,260,"Cn1cnc(S(=O)(=O)N2CCC3(CCN(c4ccc(OC(F)(F)F)cc4)C3=O)CC2)c1 [Example 181, 8-(1-Methyl-1H-imidazole-4-sulfonyl)-2-(4-trifluoromethoxy-phenyl)-2,8-diaza-spiro[4.5]decan-1-one]"
4,160,"O=C1N(c2ccc(OC(F)(F)F)cc2)CCC12CCN(S(=O)(=O)CC(O)C1CC1)CC2 (stereo not shown) [Example 208, 8-(2-Cyclopropyl-2-hydroxy-ethanesulfonyl)-2-(4-trifluoromethoxy-phenyl)-2,8-diaza-spiro[4.5]decan-1-one]"
5,220,"CC(C)OCC(=O)N1CCC2(CC1)CCN(c1ccc(OC(F)(F)F)cc1)C2=O [Example 217, 8-(2-Isopropoxy-acetyl)-2-(4-trifluoromethoxy-phenyl)-2,8-diaza-spiro[4.5]decan-1-one]"
6,90,"O=C1N(c2ccc(OC(F)(F)F)cc2)CCC12CCN(S(=O)(=O)N1CCOCC1)CC2 [Example 8, 8-(Morpholine-4-sulfonyl)-2-(4-trifluoromethoxy-phenyl)-2,8-diaza-spiro[4.5]decan-1-one]"
7,80,"O=C1N(c2ccc(OC(F)(F)F)cc2)CCC12CCN(S(=O)(=O)c1cccnc1NC1CC1)CC2 [Example 191, 8-(2-Cyclopropylamino-pyridine-3-sulfonyl)-2-(4-trifluoromethoxy-phenyl)-2,8-diaza-spiro[4.5]decan-1-one]"
8,80,"Cc1cccc(Cl)c1S(=O)(=O)N1CCC2(CCN(c3ccc(OC(F)(F)F)cc3)C2=O)CC1 [Example 312, 8-(2-Chloro-6-methyl-benzenesulfonyl)-2-(4-trifluoromethoxy-phenyl)-2,8-diaza-spiro[4.5]decan-1-one]"
9,150,"CC1CCCN1C(=O)N1CCC2(CC1)CCN(c1ccc(OC(F)(F)F)cc1)C2=O (stereo not shown) [Example 267, 8-(2-Methyl-pyrrolidine-1-carbonyl)-2-(4-trifluoromethoxy-phenyl)-2,8-diaza-spiro[4.5]decan-1-one]"
